According to PubChem BioAssay AID330 (DTP/NCI, 2004):
“And” between values parts separate entries of the source, which are not always exact repeats. Identical values can stand only once. Toxic doses and inconclusive results are not listed.

System: P388 leukemia ip, CD2F1 mice, survival T/C
Experiment: NCI In Vivo Anticancer Drug Screen. Data for tumor model P388 Leukemia (intraperitoneal) in CD2F1 (CDF1) mice
Details: endpoint: median survival time, higher = longer survival
How it was run: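 Mice carrying the transplanted tumor received test compound or vehicle. Survival was recorded in each group, and the value is the treated-group measurement divided by that of the vehicle-treated control group.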

[1] = dose: 50.0 mg/kg/injection, schedule: Q01DX009 (ip), vehicle: Klucel (hydroxypropylcellulose) (HPC)
[2] = dose: 100.0 mg/kg/injection, schedule: Q01DX009 (ip), vehicle: Klucel (hydroxypropylcellulose) (HPC)
[3] = dose: 200.0 mg/kg/injection, schedule: Q01DX009 (ip), vehicle: Klucel (hydroxypropylcellulose) (HPC)
[4] = dose: 60.0 mg/kg/injection, schedule: Q01DX005 (ip), vehicle: Klucel (hydroxypropylcellulose) (HPC)
[5] = dose: 120.0 mg/kg/injection, schedule: Q01DX005 (ip), vehicle: Klucel (hydroxypropylcellulose) (HPC)
[6] = dose: 240.0 mg/kg/injection, schedule: Q01DX005 (ip), vehicle: Klucel (hydroxypropylcellulose) (HPC)
[7] = dose: 50.0 mg/kg/injection, schedule: Q01DX005 (ip), vehicle: saline with Tween-80
[8] = dose: 100.0 mg/kg/injection, schedule: Q04DX003 (ip), vehicle: Klucel (hydroxypropylcellulose) (HPC)
[9] = dose: 200.0 mg/kg/injection, schedule: Q04DX003 (ip), vehicle: Klucel (hydroxypropylcellulose) (HPC)
[10] = dose: 100.0 mg/kg/injection, schedule: Q01DX005 (ip), vehicle: saline with Tween-80
[11] = dose: 100.0 mg/kg/injection, schedule: Q01DX001 (ip), vehicle: saline with Tween-80
[12] = dose: 200.0 mg/kg/injection, schedule: Q01DX001 (ip), vehicle: saline with Tween-80
[13] = dose: 400.0 mg/kg/injection, schedule: Q01DX001 (ip), vehicle: saline with Tween-80
[14] = dose: 200.0 mg/kg/injection, schedule: Q01DX005 (ip), vehicle: saline with Tween-80
[15] = dose: 50.0 mg/kg/injection, schedule: Q01DX009 (ip), vehicle: saline
[16] = dose: 100.0 mg/kg/injection, schedule: Q01DX009 (ip), vehicle: saline
[17] = dose: 200.0 mg/kg/injection, schedule: Q01DX009 (ip), vehicle: saline
[18] = dose: 50.0 mg/kg/injection, schedule: Q01DX009 (ip), vehicle: saline with Tween-80

CCCCCCCC[N+](C)(C)CC#CC[N+](C)(C)CCCCCCCC
T/C (dose: 6.25 mg/kg/injection, schedule: Q04DX003 (ip), vehicle: saline): 96 % of control | T/C (dose: 12.5 mg/kg/injection, schedule: Q04DX003 (ip), vehicle: saline): 103 % of control

Cc1ccc(S(=O)OC2CC(C)CCC2C(C)C)cc1 (stereo unspecified)
T/C [1]: 100 % of control | T/C [2]: 101 % of control | T/C [3]: 100 % of control

Cc1ccc(NC(=O)OCCN(C)C(=O)Nc2ccc(C)cc2C)c(C)c1
T/C (dose: 30.0 mg/kg/injection, schedule: Q01DX005 (ip), vehicle: Klucel (hydroxypropylcellulose) (HPC)): 98 % of control | T/C [4]: 103 % of control and 94 % of control | T/C [5]: 98 % of control | T/C [6]: 86 % of control

CCCCCN(CCCCC)CCC(O)c1cccc2ccccc12 (stereo unspecified)
T/C (dose: 12.5 mg/kg/injection, schedule: Q01DX005 (ip), vehicle: saline with Tween-80): 100 % of control | T/C (dose: 25.0 mg/kg/injection, schedule: Q01DX005 (ip), vehicle: saline with Tween-80): 105 % of control | T/C [7]: 103 % of control and 113 % of control

COc1c(O)ccc(C2=Cc3ccc(O)cc3OC2)c1OC
T/C (dose: 25.0 mg/kg/injection, schedule: Q01DX005 (ip), vehicle: Klucel (hydroxypropylcellulose) (HPC)): 99 % of control | T/C (dose: 50.0 mg/kg/injection, schedule: Q01DX005 (ip), vehicle: Klucel (hydroxypropylcellulose) (HPC)): 98 % of control | T/C (dose: 100.0 mg/kg/injection, schedule: Q01DX005 (ip), vehicle: Klucel (hydroxypropylcellulose) (HPC)): 109 % of control | T/C (dose: 200.0 mg/kg/injection, schedule: Q01DX005 (ip), vehicle: Klucel (hydroxypropylcellulose) (HPC)): 106 % of control

c1ccc(-c2nc3ccccc3[nH]2)nc1
T/C (dose: 25.0 mg/kg/injection, schedule: Q04DX003 (ip), vehicle: Klucel (hydroxypropylcellulose) (HPC)): 101 % of control | T/C (dose: 50.0 mg/kg/injection, schedule: Q04DX003 (ip), vehicle: Klucel (hydroxypropylcellulose) (HPC)): 96 % of control | T/C [2]: 115 % of control | T/C [8]: 101 % of control | T/C [3]: 99 % of control | T/C [9]: 93 % of control | T/C (dose: 400.0 mg/kg/injection, schedule: Q01DX009 (ip), vehicle: Klucel (hydroxypropylcellulose) (HPC)): 101 % of control

NC(CCC(=O)NC(CS)C(=O)NCC(=O)O)C(=O)O.[CH2-]CCC.[CH2-]CCC.[CH2-]CCC.[CH2-]CCC.[Ti+4] (stereo unspecified)
T/C [7]: 103 % of control | T/C [10]: 89 % of control

COc1cc2c(cc1OC)CN1CSc3cc(OC)c(OC)cc3C1C2 (stereo unspecified)
T/C [11]: 92 % of control | T/C [12]: 92 % of control

O=c1nc2scc(-c3ccccc3)n2c2sc3c(c12)CCCC3
T/C [11]: 106 % of control | T/C [12]: 95 % of control | T/C [13]: 93 % of control

OC(ON=C1CCCCC1)c1ccc2c(c1)OCO2 (stereo unspecified)
T/C [7]: 96 % of control | T/C [10]: 103 % of control | T/C [14]: 107 % of control

CS(=O)(=O)OCC(Cc1ccccc1)N1C(=O)c2ccccc2C1=O (stereo unspecified)
T/C [11]: 101 % of control | T/C [12]: 100 % of control | T/C [13]: 89 % of control

CC1(C)CC(OP2(=O)NCCCO2)CC(C)(C)N1O (stereo unspecified)
T/C (dose: 27.5 mg/kg/injection, schedule: Q01DX001 (ip), vehicle: saline): 150 % of control | T/C (dose: 55.0 mg/kg/injection, schedule: Q01DX001 (ip), vehicle: saline): 165 % of control

COC(=O)C1CCCN1C(=O)c1ccccc1 (stereo unspecified)
T/C [7]: 114 % of control | T/C [10]: 93 % of control | T/C [14]: 100 % of control

O=C1CC(c2ccccc2)C(c2ccccc2)C(=O)O1 (stereo unspecified)
T/C [8]: 87 % of control | T/C [9]: 93 % of control | T/C (dose: 400.0 mg/kg/injection, schedule: Q04DX003 (ip), vehicle: Klucel (hydroxypropylcellulose) (HPC)): 91 % of control

C=C(NC(C)=O)C(=O)CCC(N)=O
T/C (dose: 5.0 mg/kg/injection, schedule: Q01DX009 (ip), vehicle: saline sonified): 109 % of control | T/C (dose: 10.0 mg/kg/injection, schedule: Q01DX009 (ip), vehicle: saline sonified): 109 % of control | T/C (dose: 20.0 mg/kg/injection, schedule: Q01DX009 (ip), vehicle: saline sonified): 104 % of control

CCOC(=O)N(C)C
T/C (dose: 25.0 mg/kg/injection, schedule: Q01DX009 (ip), vehicle: saline): 89 % of control | T/C [15]: 91 % of control | T/C [16]: 99 % of control | T/C [17]: 105 % of control

COc1ccc(-c2csc(=[N+]3CCCCC3)s2)cc1
T/C (dose: 3.13 mg/kg/injection, schedule: Q01DX009 (ip), vehicle: water): 100 % of control | T/C (dose: 6.25 mg/kg/injection, schedule: Q01DX009 (ip), vehicle: water): 105 % of control and 110 % of control

CNC(C)C(O)c1ccc(O)cc1 (stereo unspecified)
T/C [15]: 102 % of control and 92 % of control | T/C [16]: 102 % of control and 105 % of control | T/C [17]: 102 % of control and 108 % of control | T/C (dose: 400.0 mg/kg/injection, schedule: Q01DX009 (ip), vehicle: saline): 102 % of control and 98 % of control

O=C(O)CCCCOc1ccc(N(CCCl)CCCl)cc1
T/C (dose: 100.0 mg/kg/injection, schedule: Q01DX001 (ip), vehicle: Klucel (hydroxypropylcellulose) (HPC)): 123 % of control

CN(N=O)N1C(=O)SCC(c2ccccc2)(c2ccccc2)C1=O
T/C [4]: 97 % of control | T/C [5]: 90 % of control | T/C [6]: 88 % of control

CC(CCCN)Nc1cc(O)cc2cccnc12 (stereo unspecified)
T/C (dose: 100.0 mg/kg/injection, schedule: Q01DX001 (ip), vehicle: saline): 92 % of control | T/C (dose: 200.0 mg/kg/injection, schedule: Q01DX001 (ip), vehicle: saline): 92 % of control | T/C (dose: 400.0 mg/kg/injection, schedule: Q01DX001 (ip), vehicle: saline): 89 % of control

O=P(c1ccccc1)(c1ccccc1)C(O)c1ccc(F)cc1 (stereo unspecified)
T/C [1]: 89 % of control | T/C [2]: 100 % of control | T/C [3]: 93 % of control

CC(C)C(=O)N1CCCCCCN1C(=O)C(C)C
T/C [2]: 107 % of control | T/C [3]: 111 % of control

Cc1ccc(S(=O)(=O)OC2CCCC2)cc1
T/C (dose: 50.0 mg/kg/injection, schedule: Q01DX009 (ip), vehicle: other): 100 % of control | T/C (dose: 100.0 mg/kg/injection, schedule: Q01DX009 (ip), vehicle: other): 103 % of control | T/C (dose: 200.0 mg/kg/injection, schedule: Q01DX009 (ip), vehicle: other): 89 % of control

CCOC(=O)C(=[N+]=[N-])C(=O)OCC12CCC=C1CC1(CC2)OCCO1 (stereo unspecified)
T/C [7]: 101 % of control | T/C [10]: 108 % of control | T/C [14]: 102 % of control

CCOP(=O)(OCC)OC(C)CC1CO1 (stereo unspecified)
T/C (dose: 100.0 mg/kg/injection, schedule: Q04DX002 (ip), vehicle: saline): 100 % of control | T/C (dose: 200.0 mg/kg/injection, schedule: Q04DX002 (ip), vehicle: saline): 98 % of control | T/C (dose: 400.0 mg/kg/injection, schedule: Q04DX002 (ip), vehicle: saline): 103 % of control

CC(=O)O[C@@H]1CO[C@H]2O[C@H]3[C@@H](C(C=O)=C[C@H](O)[C@@H]4C5=C(C(C)C)CC[C@]5(C)CC[C@@]34C)[C@@]2(O)C1=O
T/C (dose: 0.39 mg/kg/injection, schedule: Q01DX009 (ip), vehicle: Klucel (hydroxypropylcellulose) (HPC)): 94 % of control | T/C (dose: 0.78 mg/kg/injection, schedule: Q01DX009 (ip), vehicle: Klucel (hydroxypropylcellulose) (HPC)): 104 % of control | T/C (dose: 3.12 mg/kg/injection, schedule: Q01DX009 (ip), vehicle: Klucel (hydroxypropylcellulose) (HPC)): 107 % of control and 114 % of control | T/C (dose: 6.25 mg/kg/injection, schedule: Q01DX009 (ip), vehicle: Klucel (hydroxypropylcellulose) (HPC)): 115 % of control and 121 % of control

CC(C)(O)c1ccc[n+]([O-])c1
T/C [15]: 98 % of control | T/C [16]: 107 % of control | T/C [17]: 100 % of control

S=c1sc2cccnc2s1
T/C (dose: 12.5 mg/kg/injection, schedule: Q01DX009 (ip), vehicle: saline with Tween-80): 99 % of control | T/C (dose: 25.0 mg/kg/injection, schedule: Q01DX009 (ip), vehicle: saline with Tween-80): 100 % of control | T/C [18]: 104 % of control and 111 % of control

N/C(=N\S(=O)(=O)c1cc(C(F)(F)F)cc(C(F)(F)F)c1)c1ccncc1
T/C [18]: 86 % of control | T/C (dose: 100.0 mg/kg/injection, schedule: Q01DX009 (ip), vehicle: saline with Tween-80): 90 % of control

CCCCN(CCCC)C(C)C(O)c1ccc2cc(Br)c3ccccc3c2c1 (stereo unspecified)
T/C [7]: 100 % of control | T/C [10]: 98 % of control | T/C [14]: 91 % of control

COc1ccc(-c2cncnc2N)cc1OC
T/C [1]: 95 % of control | T/C [2]: 97 % of control | T/C [3]: 89 % of control
